Results published in US11566022B2, “3-(5-methoxy-1-oxoisoindolin-2-yl)piperidine-2,6-dione derivatives and uses thereof” (NOVARTIS AG, priority 2019, dated 2023).

Molecular target: HiBit-WIZ fusion protein (Homo sapiens, UniProt O95785+Q96SW2)
Test: Quantification of WIZ protein levels in HiBit tag fusion protein assay (WIZ HiBit assay in 293T cells)
Assay type: cell-based
Design: Dmax: dose or concentration left out as unconfirmed
Conditions: for Dmax / remaining activity at up to 25 µM: HEK-293T, 293T cells; for Dmax: 100 minus Amax, read-out: % degradation of WIZ (100-Amax); for remaining activity at up to 25 µM: DMSO-normalized, curve-fitted percentage of WIZ-HiBit remaining at 25 uM, read-out: WIZ Amax; for DC50: WIZ HiBit assay in 293T cells, 10-point, 5-fold dose response, highest concentration 25 μM, about 18 hours, read-out: WIZ AC50

Chain of HiBit-WIZ fusion protein (O95785 whole entry, the tested form may be a part): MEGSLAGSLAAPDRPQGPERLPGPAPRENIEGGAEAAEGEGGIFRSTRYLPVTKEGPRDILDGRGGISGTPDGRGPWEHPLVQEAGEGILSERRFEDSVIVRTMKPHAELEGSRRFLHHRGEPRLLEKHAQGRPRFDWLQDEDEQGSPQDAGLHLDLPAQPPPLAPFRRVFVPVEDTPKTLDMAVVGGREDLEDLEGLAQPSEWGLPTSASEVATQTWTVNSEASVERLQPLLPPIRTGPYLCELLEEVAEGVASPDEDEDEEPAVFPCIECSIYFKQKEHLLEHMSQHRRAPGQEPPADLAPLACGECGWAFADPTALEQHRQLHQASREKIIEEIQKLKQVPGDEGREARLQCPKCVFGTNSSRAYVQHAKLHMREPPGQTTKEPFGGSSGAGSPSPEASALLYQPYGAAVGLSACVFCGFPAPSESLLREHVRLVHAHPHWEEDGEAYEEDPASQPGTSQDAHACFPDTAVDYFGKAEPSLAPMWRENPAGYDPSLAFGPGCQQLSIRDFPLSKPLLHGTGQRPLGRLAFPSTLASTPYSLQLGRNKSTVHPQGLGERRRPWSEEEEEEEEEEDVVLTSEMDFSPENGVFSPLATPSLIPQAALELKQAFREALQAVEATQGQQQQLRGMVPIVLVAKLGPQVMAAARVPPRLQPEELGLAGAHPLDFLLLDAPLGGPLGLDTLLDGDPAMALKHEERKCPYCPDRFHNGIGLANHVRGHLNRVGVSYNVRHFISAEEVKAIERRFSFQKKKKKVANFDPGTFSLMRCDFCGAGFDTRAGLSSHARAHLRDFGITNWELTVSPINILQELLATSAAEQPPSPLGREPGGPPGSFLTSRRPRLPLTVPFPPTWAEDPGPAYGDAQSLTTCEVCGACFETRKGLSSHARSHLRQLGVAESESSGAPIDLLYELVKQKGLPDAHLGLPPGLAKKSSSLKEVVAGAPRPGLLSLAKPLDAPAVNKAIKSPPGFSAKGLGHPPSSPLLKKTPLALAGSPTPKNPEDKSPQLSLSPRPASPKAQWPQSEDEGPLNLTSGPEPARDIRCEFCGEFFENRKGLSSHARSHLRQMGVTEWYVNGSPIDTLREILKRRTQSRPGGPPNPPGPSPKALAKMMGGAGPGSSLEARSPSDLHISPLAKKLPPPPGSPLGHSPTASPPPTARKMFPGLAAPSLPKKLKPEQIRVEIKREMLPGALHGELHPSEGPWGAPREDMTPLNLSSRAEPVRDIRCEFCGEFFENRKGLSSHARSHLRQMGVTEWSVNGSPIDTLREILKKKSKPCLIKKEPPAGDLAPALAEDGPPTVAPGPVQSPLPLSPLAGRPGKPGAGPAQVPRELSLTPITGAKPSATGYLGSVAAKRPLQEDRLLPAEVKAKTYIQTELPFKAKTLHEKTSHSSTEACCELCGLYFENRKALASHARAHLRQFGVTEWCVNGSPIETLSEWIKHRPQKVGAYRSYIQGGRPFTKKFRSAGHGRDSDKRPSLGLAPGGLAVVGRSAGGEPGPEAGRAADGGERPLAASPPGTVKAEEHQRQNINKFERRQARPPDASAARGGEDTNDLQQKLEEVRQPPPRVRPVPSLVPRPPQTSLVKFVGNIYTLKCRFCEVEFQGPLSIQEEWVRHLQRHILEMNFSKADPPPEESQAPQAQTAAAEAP
Chain of HiBit-WIZ fusion protein (Q96SW2 whole entry, the tested form may be a part): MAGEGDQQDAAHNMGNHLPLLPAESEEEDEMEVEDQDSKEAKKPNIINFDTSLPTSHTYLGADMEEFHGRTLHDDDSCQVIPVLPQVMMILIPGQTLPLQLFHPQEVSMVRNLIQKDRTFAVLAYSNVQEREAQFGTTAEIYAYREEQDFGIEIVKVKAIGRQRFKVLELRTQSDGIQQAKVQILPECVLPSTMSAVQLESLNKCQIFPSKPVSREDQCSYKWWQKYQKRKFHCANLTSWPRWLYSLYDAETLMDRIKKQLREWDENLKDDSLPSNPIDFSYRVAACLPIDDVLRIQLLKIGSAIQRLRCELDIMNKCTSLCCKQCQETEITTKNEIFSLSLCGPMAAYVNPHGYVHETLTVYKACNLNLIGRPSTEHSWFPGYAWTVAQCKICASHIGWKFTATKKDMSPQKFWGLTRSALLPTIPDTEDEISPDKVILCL
Chain of HiBit-WIZ fusion protein (Q16531 whole entry partner, the tested form may be a part): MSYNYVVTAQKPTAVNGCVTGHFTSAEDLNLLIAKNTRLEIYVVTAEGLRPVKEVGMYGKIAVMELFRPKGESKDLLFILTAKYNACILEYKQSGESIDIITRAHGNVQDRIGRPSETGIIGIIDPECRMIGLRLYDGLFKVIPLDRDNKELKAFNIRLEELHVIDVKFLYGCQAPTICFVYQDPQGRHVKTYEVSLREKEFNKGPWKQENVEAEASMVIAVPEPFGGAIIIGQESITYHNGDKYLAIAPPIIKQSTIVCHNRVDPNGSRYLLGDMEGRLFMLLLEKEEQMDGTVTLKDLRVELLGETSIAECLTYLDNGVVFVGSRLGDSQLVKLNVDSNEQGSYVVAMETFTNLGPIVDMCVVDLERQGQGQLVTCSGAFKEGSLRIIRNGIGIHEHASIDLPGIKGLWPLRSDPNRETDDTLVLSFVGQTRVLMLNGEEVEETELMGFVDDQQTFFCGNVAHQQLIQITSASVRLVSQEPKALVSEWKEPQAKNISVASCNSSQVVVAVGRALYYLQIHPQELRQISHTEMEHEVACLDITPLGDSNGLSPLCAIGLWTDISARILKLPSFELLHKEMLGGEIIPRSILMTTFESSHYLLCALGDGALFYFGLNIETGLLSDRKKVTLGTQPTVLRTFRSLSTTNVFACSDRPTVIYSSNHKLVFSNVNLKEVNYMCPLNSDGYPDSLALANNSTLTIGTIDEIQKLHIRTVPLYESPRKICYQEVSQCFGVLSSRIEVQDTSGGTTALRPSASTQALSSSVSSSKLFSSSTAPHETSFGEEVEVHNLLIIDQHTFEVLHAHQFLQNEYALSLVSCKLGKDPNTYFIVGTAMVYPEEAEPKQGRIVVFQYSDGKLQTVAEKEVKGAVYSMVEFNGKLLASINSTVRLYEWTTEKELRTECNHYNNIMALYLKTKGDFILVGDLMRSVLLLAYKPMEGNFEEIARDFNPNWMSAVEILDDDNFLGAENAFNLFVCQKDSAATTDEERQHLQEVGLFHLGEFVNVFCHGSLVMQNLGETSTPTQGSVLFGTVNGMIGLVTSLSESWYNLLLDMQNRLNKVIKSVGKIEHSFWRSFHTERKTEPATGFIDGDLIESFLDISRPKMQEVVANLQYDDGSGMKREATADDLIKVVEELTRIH

Row | Dmax | remaining activity at up to 25 µM | DC50 | Compound
1 | 99% | 1% | 16 nM | O=C1CCC(N2Cc3cc(OC[C@@H]4CCCCN4CC4CCN(Cc5ccccc5)CC4)ccc3C2=O)C(=O)N1 (stereo partly drawn) [Compound I-50aj]
2 | 81.3% | 18.7% | 347 nM | O=C1CCC(N2Cc3cc(OC[C@@H]4CCCCN4Cc4ccc(N5CCCC5)nc4)ccc3C2=O)C(=O)N1 (stereo partly drawn) [Compound I-50ak]
3 | 54.1% | 45.9% | > 25000 nM | O=C1CCC(N2Cc3cc(OC[C@@H]4CCCCN4Cc4c[nH]cn4)ccc3C2=O)C(=O)N1 (stereo partly drawn) [Compound I-50al]
4 | 40% | 60% | > 25000 nM | O=C1CCC(N2Cc3cc(OC[C@@H]4CCCCN4Cc4ccccc4OCC(=O)N4CCCCC4)ccc3C2=O)C(=O)N1 (stereo partly drawn) [Compound I-50am]
5 | 82.2% | 17.8% | 1710 nM | O=C1CCC(N2Cc3cc(OC[C@H]4CCCCN4Cc4cn[nH]c4)ccc3C2=O)C(=O)N1 (stereo partly drawn) [Compound I-50an]
6 | 96.8% | 3.2% | 89 nM | Cc1noc(C)c1CN1CCCC[C@H]1COc1ccc2c(c1)CN(C1CCC(=O)NC1=O)C2=O (stereo partly drawn) [Compound I-50ao]
7 | 30.1% | 69.9% | > 25000 nM | Cn1c(CN2CCCC[C@H]2COc2ccc3c(c2)CN(C2CCC(=O)NC2=O)C3=O)nc2ccccc21 (stereo partly drawn) [Compound I-50ap]
8 | 15.4% | 84.6% | > 25000 nM | CC(C)(C)OC(=O)NC1(CN2CCCC[C@H]2COc2ccc3c(c2)CN(C2CCC(=O)NC2=O)C3=O)CCCC1 (stereo partly drawn) [Compound I-50aq]
9 | 78.2% | 21.8% | 1140 nM | CN(C)c1ncc(CN2CCCC[C@@H]2COc2ccc3c(c2)CN(C2CCC(=O)NC2=O)C3=O)cn1 (stereo partly drawn) [Compound I-50ar]
10 | 84.3% | 15.7% | 327 nM | CCN(CC)c1ccc(CN2CCCC[C@H]2COc2ccc3c(c2)CN(C2CCC(=O)NC2=O)C3=O)cn1 (stereo partly drawn) [Compound I-50as]
11 | 9.8% | 90.2% | > 25000 nM | Cc1nnsc1CN1CCCC[C@H]1COc1ccc2c(c1)CN(C1CCC(=O)NC1=O)C2=O (stereo partly drawn) [Compound I-50at]
12 | 24.2% | 75.8% | > 25000 nM | CCOC(=O)c1cccc2[nH]nc(CN3CCCC[C@H]3COc3ccc4c(c3)CN(C3CCC(=O)NC3=O)C4=O)c12 (stereo partly drawn) [Compound I-50au]
13 | 24.5% | 75.5% | > 25000 nM | N#Cc1cccc(Cn2cccc(CN3CCCC[C@H]3COc3ccc4c(c3)CN(C3CCC(=O)NC3=O)C4=O)c2=O)c1 (stereo partly drawn) [Compound I-50aw]
14 | 92.5% | 7.5% | 149 nM | O=C1CCC(N2Cc3cc(OC[C@H]4CCCCN4Cc4nccn4Cc4ccccc4)ccc3C2=O)C(=O)N1 (stereo partly drawn) [Compound I-50ax]
15 | 25.7% | 74.3% | > 25000 nM | COC(=O)c1nn(-c2cccc(C(F)(F)F)c2)cc1CN1CCCC[C@H]1COc1ccc2c(c1)CN(C1CCC(=O)NC1=O)C2=O (stereo partly drawn) [Compound I-50ay]
16 | 83% | 17% | 1480 nM | O=C1CCC(N2Cc3cc(OC[C@@H]4CCCCN4Cc4ccc(O)c(Cl)c4)ccc3C2=O)C(=O)N1 (stereo partly drawn) [Compound I-50b]
17 | 56.8% | 43.2% | 18300 nM | Cc1nc(-c2cccc(CN3CCCC[C@H]3COc3ccc4c(c3)CN(C3CCC(=O)NC3=O)C4=O)c2)no1 (stereo partly drawn) [Compound I-50bb]

Row | Dmax | remaining activity at up to 25 µM | DC50 | Compound
18 | 93.4% | 6.6% | 58 nM | Cn1nc(CN2CCCC[C@H]2COc2ccc3c(c2)CN(C2CCC(=O)NC2=O)C3=O)cc1-c1ccccc1 (stereo partly drawn) [Compound I-50bc]
19 | 41.1% | 58.9% | > 25000 nM | NS(=O)(=O)c1cc(CN2CCCC[C@H]2COc2ccc3c(c2)CN(C2CCC(=O)NC2=O)C3=O)ccc1Cl (stereo partly drawn) [Compound I-50bd]
20 | 41.9% | 58.1% | > 25000 nM | Nc1ncc(CN2CCCC[C@H]2COc2ccc3c(c2)CN(C2CCC(=O)NC2=O)C3=O)cn1 (stereo partly drawn) [Compound I-50be]
21 | 50.9% | 49.1% | > 25000 nM | COc1ccc(CN2CCCC[C@H]2COc2ccc3c(c2)CN(C2CCC(=O)NC2=O)C3=O)cn1 (stereo partly drawn) [Compound I-50bf]
22 | 98% | 2% | 31 nM | O=C1CCC(N2Cc3cc(OC[C@H]4CCCCN4CC4CCN(Cc5ccccc5)CC4)ccc3C2=O)C(=O)N1 (stereo partly drawn) [Compound I-50bg]
23 | 99.9% | 0.1% | 5 nM | COC(=O)c1ccc(Oc2ccc(CN3CCCC[C@@H]3COc3ccc4c(c3)CN(C3CCC(=O)NC3=O)C4=O)cc2)cc1 (stereo partly drawn) [Compound I-50bh]
24 | 25.8% | 74.2% | > 25000 nM | O=C1CCC(N2Cc3cc(OC[C@@H]4CCCCN4Cc4cc(Cl)ccc4O)ccc3C2=O)C(=O)N1 (stereo partly drawn) [Compound I-50bj]
25 | 17.6% | 82.4% | > 25000 nM | N#Cc1cc(CN2CCCC[C@H]2COc2ccc3c(c2)CN(C2CCC(=O)NC2=O)C3=O)ccn1 (stereo partly drawn) [Compound I-50bl]
26 | 36% | 64% | > 25000 nM | N#Cc1cccc(CN2CCCC[C@H]2COc2ccc3c(c2)CN(C2CCC(=O)NC2=O)C3=O)c1 (stereo partly drawn) [Compound I-50bm]
27 | 76.2% | 23.8% | 897 nM | O=C1CCC(N2Cc3cc(OC[C@@H]4CCCCN4Cc4ccnc(N5CCOCC5)c4)ccc3C2=O)C(=O)N1 (stereo partly drawn) [Compound I-50bn]
28 | 57.4% | 42.6% | 20800 nM | O=C1CCC(N2Cc3cc(OC[C@@H]4CCCCN4Cc4cccc(N5CCOCC5)n4)ccc3C2=O)C(=O)N1 (stereo partly drawn) [Compound I-50bo]
29 | 65.9% | 34.1% | 7000 nM | Cc1ncc(CN2CCCC[C@@H]2COc2ccc3c(c2)CN(C2CCC(=O)NC2=O)C3=O)[nH]1 (stereo partly drawn) [Compound I-50bp]
30 | 72.1% | 27.9% | 1200 nM | COC(=O)[C@@H]1CC[C@H](CN2CCCC[C@@H]2COc2ccc3c(c2)CN(C2CCC(=O)NC2=O)C3=O)C1 (stereo partly drawn) [Compound I-50bq]
31 | 94.1% | 5.9% | 44 nM | O=C1CCC(N2Cc3cc(OC[C@H]4CCCCN4Cc4ccc(N5CCN(Cc6ccccc6)CC5)cc4)ccc3C2=O)C(=O)N1 (stereo partly drawn) [Compound I-50br]
32 | 94.5% | 5.5% | 18 nM | O=C1CCC(N2Cc3cc(OC[C@H]4CCCCN4Cc4ccc(C(=O)N5CCCC5)cc4)ccc3C2=O)C(=O)N1 (stereo partly drawn) [Compound I-50bs]
33 | 99.9% | 0.1% | 1 nM | O=C1CCC(N2Cc3cc(OC[C@H]4CCCCN4Cc4cnn(Cc5ccccc5)c4)ccc3C2=O)C(=O)N1 (stereo partly drawn) [Compound I-50bv]
34 | 56.4% | 43.6% | 21000 nM | O=C1CCC(N2Cc3cc(OC[C@@H]4CCCCN4Cc4cccc(O)c4O)ccc3C2=O)C(=O)N1 (stereo partly drawn) [Compound I-50bx]
